Laboratory results published in PubChem BioAssay AID330 (DTP/NCI, 2004).
Values joined by “and” are separate entries in the source; they are usually repeats but may differ in a detail not shown here. Equal values may be shown once. Toxic doses and inconclusive results are not listed. How the source made its calls: active means survival T/C of 150% or more; inactive means T/C below 125% in these data.

Test system: P388 leukemia ip, CD2F1 mice, survival T/C
Experiment: NCI In Vivo Anticancer Drug Screen. Data for tumor model P388 Leukemia (intraperitoneal) in CD2F1 (CDF1) mice
Details: endpoint: median survival time, higher = longer survival
Method in brief: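 Mice carrying the transplanted tumor received test compound or vehicle. Survival was recorded in each group, and the value is the treated-group measurement divided by that of the vehicle-treated control group.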

[1] = dose: 3.12 mg/kg/injection, schedule: Q01DX005 (ip), vehicle: Klucel (hydroxypropylcellulose) (HPC)
[2] = dose: 6.25 mg/kg/injection, schedule: Q01DX005 (ip), vehicle: Klucel (hydroxypropylcellulose) (HPC)
[3] = dose: 50.0 mg/kg/injection, schedule: Q01DX005 (ip), vehicle: Klucel (hydroxypropylcellulose) (HPC)
[4] = dose: 100.0 mg/kg/injection, schedule: Q01DX005 (ip), vehicle: Klucel (hydroxypropylcellulose) (HPC)
[5] = dose: 200.0 mg/kg/injection, schedule: Q01DX005 (ip), vehicle: Klucel (hydroxypropylcellulose) (HPC)
[6] = dose: 100.0 mg/kg/injection, schedule: Q04DX003 (ip), vehicle: saline with Tween-80
[7] = dose: 200.0 mg/kg/injection, schedule: Q04DX003 (ip), vehicle: saline with Tween-80
[8] = dose: 400.0 mg/kg/injection, schedule: Q04DX003 (ip), vehicle: saline with Tween-80
[9] = dose: 25.0 mg/kg/injection, schedule: Q01DX005 (ip), vehicle: Klucel (hydroxypropylcellulose) (HPC)
[10] = dose: 60.0 mg/kg/injection, schedule: Q01DX005 (ip), vehicle: saline with Tween-80
[11] = dose: 120.0 mg/kg/injection, schedule: Q01DX005 (ip), vehicle: saline with Tween-80
[12] = dose: 240.0 mg/kg/injection, schedule: Q01DX005 (ip), vehicle: saline with Tween-80
[13] = dose: 100.0 mg/kg/injection, schedule: Q04DX003 (ip), vehicle: saline
[14] = dose: 200.0 mg/kg/injection, schedule: Q04DX003 (ip), vehicle: saline
[15] = dose: 12.5 mg/kg/injection, schedule: Q01DX009 (ip), vehicle: Klucel (hydroxypropylcellulose) (HPC)
[16] = dose: 25.0 mg/kg/injection, schedule: Q01DX009 (ip), vehicle: Klucel (hydroxypropylcellulose) (HPC)
[17] = dose: 50.0 mg/kg/injection, schedule: Q01DX009 (ip), vehicle: Klucel (hydroxypropylcellulose) (HPC)
[18] = dose: 12.5 mg/kg/injection, schedule: Q04DX003 (ip), vehicle: saline with Tween-80
[19] = dose: 25.0 mg/kg/injection, schedule: Q04DX003 (ip), vehicle: saline with Tween-80
[20] = dose: 50.0 mg/kg/injection, schedule: Q04DX003 (ip), vehicle: saline with Tween-80
[21] = dose: 100.0 mg/kg/injection, schedule: Q01DX009 (ip), vehicle: Klucel (hydroxypropylcellulose) (HPC)

Measured: T/C

Cc1cc2nc3c(C4OCC(O)C4O)nn(-c4ccccc4)c3nc2cc1C (stereo not given)
inactive: [1] 93 % of control | [2] 88 % of control | [3] 88 % of control | [4] 93 % of control | [5] 103 % of control

CN=C1c2ccccc2C(=O)c2c1c(O)n(-c1ccccc1)c2O
inactive: [3] 96 % of control | [4] 100 % of control

CC(C)(CCl)C(=O)O
inactive: dose: 50.0 mg/kg/injection, schedule: Q01DX009 (ip), vehicle: saline 95 % of control

O=C(OCC(Cl)(Cl)Cl)N1[C@@H]2C=C[C@@H](N1C(=O)OCC(Cl)(Cl)Cl)[C@@]13CC(OCc4ccc(Br)cc4)CC21O3 (stereo not given in full)
inactive: [3] 105 % of control | [4] 95 % of control | [5] 95 % of control

CCCCOC(=O)CCC(C)=O
inactive: [6] 100 % of control | [7] 100 % of control | [8] 104 % of control

Cn1ccnc1Sc1ccccn1
inactive: dose: 60.0 mg/kg/injection, schedule: Q01DX005 (ip), vehicle: saline 104 % of control | dose: 120.0 mg/kg/injection, schedule: Q01DX005 (ip), vehicle: saline 107 % of control | dose: 240.0 mg/kg/injection, schedule: Q01DX005 (ip), vehicle: saline 89 % of control

CCN(CCN1C(=O)C2CCCCC2C1=O)c1ccc(N=O)c(C)c1 (stereo not given)
inactive: [6] 106 % of control | [7] 109 % of control | [8] 112 % of control

CC(Cc1nc2ccccc2[nH]1)Cc1nc2ccccc2[nH]1
inactive: [9] 100 % of control | [3] 99 % of control | [4] 92 % of control | [5] 91 % of control

N#CCCN/N=C\c1ccc2c(c1)OCO2
inactive: [6] 102 % of control | [7] 96 % of control | [8] 92 % of control

C=C1CC2(CC[N+](Cc3ccccc3)(Cc3ccccc3)CC2)OC1=O
inactive: dose: 12.5 mg/kg/injection, schedule: Q01DX005 (ip), vehicle: saline 103 % of control | dose: 25.0 mg/kg/injection, schedule: Q01DX005 (ip), vehicle: saline 103 % of control | dose: 50.0 mg/kg/injection, schedule: Q01DX005 (ip), vehicle: saline 102 % of control and 97 % of control

NC1=C(O)C(=O)C(/C=C/c2ccccc2)O1 (stereo not given)
inactive: [10] 90 % of control | [11] 90 % of control | [12] 87 % of control

Cc1ccc2c(c1)C1(SC(C)C(=O)N1c1ccc(I)cc1)C(=O)N2 (stereo not given)
inactive: [10] 103 % of control | [11] 94 % of control | [12] 91 % of control

COc1ccc(C)cc1C(CC(=O)O)CC(=O)N(CCCl)CCCl (stereo not given)
inactive: [13] 102 % of control | [14] 100 % of control | dose: 400.0 mg/kg/injection, schedule: Q04DX003 (ip), vehicle: saline 102 % of control

C[n+]1c(C2(O)CCCCCCCCCCC2)sc2ccccc21
inactive: dose: 60.0 mg/kg/injection, schedule: Q01DX005 (ip), vehicle: Klucel (hydroxypropylcellulose) (HPC) 95 % of control | dose: 120.0 mg/kg/injection, schedule: Q01DX005 (ip), vehicle: Klucel (hydroxypropylcellulose) (HPC) 100 % of control | dose: 240.0 mg/kg/injection, schedule: Q01DX005 (ip), vehicle: Klucel (hydroxypropylcellulose) (HPC) 115 % of control

O=[N+]([O-])c1cc(F)cc([N+](=O)[O-])c1O
inactive: [15] 102 % of control | [16] 102 % of control | [17] 112 % of control

Cc1cc(CCN)c(C)c2c1oc1ccccc12
inactive: dose: 25.0 mg/kg/injection, schedule: Q04DX003 (ip), vehicle: Klucel (hydroxypropylcellulose) (HPC) 103 % of control | dose: 50.0 mg/kg/injection, schedule: Q04DX003 (ip), vehicle: Klucel (hydroxypropylcellulose) (HPC) 99 % of control | dose: 100.0 mg/kg/injection, schedule: Q04DX003 (ip), vehicle: Klucel (hydroxypropylcellulose) (HPC) 100 % of control | dose: 200.0 mg/kg/injection, schedule: Q04DX003 (ip), vehicle: Klucel (hydroxypropylcellulose) (HPC) 105 % of control

CCN(CC)CCCCNC(=O)c1noc2cc([N+](=O)[O-])ccc12
inactive: [1] 100 % of control | [2] 99 % of control and 105 % of control | dose: 12.5 mg/kg/injection, schedule: Q01DX005 (ip), vehicle: Klucel (hydroxypropylcellulose) (HPC) 103 % of control and 97 % of control | [9] 103 % of control and 122 % of control and 96 % of control

COc1ccc(/C=C2\CCc3cc(OC)ccc3C2=O)cc1
inactive: dose: 6.25 mg/kg/injection, schedule: Q01DX009 (ip), vehicle: Klucel (hydroxypropylcellulose) (HPC) 117 % of control | [15] 117 % of control | [16] 115 % of control

CC(=O)SCC1C(=O)CCCC1=O
inactive: [18] 104 % of control | [19] 101 % of control and 109 % of control | [20] 100 % of control and 124 % of control

Oc1ccccc1/C=N/Nc1ccc2ccccc2n1
inactive: dose: 25.0 mg/kg/injection, schedule: Q04DX003 (ip), vehicle: saline 96 % of control | dose: 50.0 mg/kg/injection, schedule: Q04DX003 (ip), vehicle: saline 95 % of control | [13] 102 % of control | [14] 93 % of control

CNC(=O)N(C)CN(C)C(=O)NC
inactive: [17] 100 % of control | [21] 106 % of control | dose: 200.0 mg/kg/injection, schedule: Q01DX009 (ip), vehicle: Klucel (hydroxypropylcellulose) (HPC) 107 % of control

O=c1[nH]c2ccccc2c2ccccc12
inactive: [6] 90 % of control | [7] 90 % of control | [8] 90 % of control

CCCCOC(=O)NC(=O)c1cc2cc(I)cc(I)c2oc1=O
inactive: [10] 91 % of control | [11] 94 % of control | [12] 94 % of control

Oc1c(C(Nc2cccc3cccnc23)c2ccccc2)ccc2cccnc12 (stereo not given)
inactive: [16] 110 % of control | [17] 106 % of control and 111 % of control | [21] 106 % of control and 107 % of control

CC1[C@@H]2CC=C3[C@H]4CCC5Cc6nc7c(nc6C[C@@]5(C)C4(O)CC(=O)[C@]32CO[C@]12OC(C)(C)CC2O)CC1CC[C@@H]2C3=C[C@H]4O[C@@]5(O[C@@](C)(CO)C[C@@H]5O)C(C)[C@@]4(O)[C@]3(C)[C@@H](O)CC2[C@]1(C)C7 (stereo not given in full)
inactive: dose: 10.0 micrograms/kg/injection, schedule: Q01DX005 (ip), vehicle: saline + alcohol 114 % of control and 117 % of control | dose: 20.0 micrograms/kg/injection, schedule: Q01DX005 (ip), vehicle: saline + alcohol 121 % of control

CC1(/C=N/NC(N)=O)NC(=O)NC1=O (stereo not given)
inactive: dose: 50.0 mg/kg/injection, schedule: Q01DX005 (ip), vehicle: saline with Tween-80 96 % of control | dose: 100.0 mg/kg/injection, schedule: Q01DX005 (ip), vehicle: saline with Tween-80 103 % of control | dose: 200.0 mg/kg/injection, schedule: Q01DX005 (ip), vehicle: saline with Tween-80 96 % of control

CCCCCCCCN(c1ccc(C(=O)NC(CCC(=O)OCC)C(=O)OCC)cc1)S(=O)(=O)c1ccc(C)cc1 (stereo not given)
inactive: [18] 104 % of control | [19] 100 % of control | [20] 95 % of control

c1cc2cc3c(cc2o1)OC[C@H]1c2cc4c(cc2O[C@@H]31)OCO4
inactive: dose: 100.0 mg/kg/injection, schedule: Q01DX001 (ip), vehicle: Klucel (hydroxypropylcellulose) (HPC) 91 % of control | dose: 200.0 mg/kg/injection, schedule: Q01DX001 (ip), vehicle: Klucel (hydroxypropylcellulose) (HPC) 87 % of control
